According to patent US6770451B2, “Screening for enzyme inhibitors” (Discoverx, Inc., priority 2001, dated 2004):
pIC50: −log10 of the molar value.

Tests used:
STK [1] = assay: DiscoveRx STK HitHunter Assay; format: biochemical
STK [2] = assay: Fluorescent Polarization STK Assay (FP Assay); format: biochemical

| SMILES | pIC50 (STK [1]) | pIC50 (STK [2]) |
| --- | --- | --- |
| COC1C(N(C)CC(=O)O)CC2OC1(C)n1c3ccccc3c3c4c(c5c6ccccc6n2c5c31)C(=O)NC4 (stereo not shown) [STA-CM, N-carboxymethylstaurosporine] | 7.04 | 6.66 |
| CN[C@@H]1C[C@H]2O[C@@](C)([C@@H]1OC)n1c3ccccc3c3c4c(c5c6ccccc6n2c5c31)C(=O)NC4 [staurosporine] | 8.05 | 7.66 |
